How the values were obtained:
[1] = target: Sigma non-opioid intracellular receptor 1 (Homo sapiens, UniProt Q99720); assay: DRUGMATRIX: Sigma1 radioligand binding (ligand: [3H] Haloperidol); type: cell membranes, Jurkat, Membrane; settings: Not Active = under 50% inhibition at 10 µM
Progesterone receptor = target: T1, Progesterone receptor (Bos taurus, UniProt Q690N0); assay: DRUGMATRIX: Progesterone radioligand binding (ligand: [3H] R-5020); type: tissue-based, Uterus; settings: Not Active = under 50% inhibition at 10 µM
T1 sequence (Q690N0 whole entry): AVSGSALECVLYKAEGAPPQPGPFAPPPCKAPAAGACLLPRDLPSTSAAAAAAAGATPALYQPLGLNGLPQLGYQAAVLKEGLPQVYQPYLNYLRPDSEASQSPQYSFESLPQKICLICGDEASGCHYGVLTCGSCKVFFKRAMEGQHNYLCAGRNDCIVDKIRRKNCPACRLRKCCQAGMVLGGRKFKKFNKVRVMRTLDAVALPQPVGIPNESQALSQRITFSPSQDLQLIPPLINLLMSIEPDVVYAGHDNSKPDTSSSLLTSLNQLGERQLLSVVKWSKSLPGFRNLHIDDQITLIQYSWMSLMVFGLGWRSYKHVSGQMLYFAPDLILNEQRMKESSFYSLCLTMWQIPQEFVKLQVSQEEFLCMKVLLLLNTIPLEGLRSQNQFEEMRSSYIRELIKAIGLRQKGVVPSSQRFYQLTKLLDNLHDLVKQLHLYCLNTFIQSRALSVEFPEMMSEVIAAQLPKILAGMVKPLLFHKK

[2] = target: T2, Vasoactive intestinal polypeptide receptor 1 (Homo sapiens, UniProt P32241); type: cell membranes, Membrane; settings: ht-29; also: in other assays of this panel Not Active means under 50% inhibition at 10 µM
T2 sequence (P32241 whole entry): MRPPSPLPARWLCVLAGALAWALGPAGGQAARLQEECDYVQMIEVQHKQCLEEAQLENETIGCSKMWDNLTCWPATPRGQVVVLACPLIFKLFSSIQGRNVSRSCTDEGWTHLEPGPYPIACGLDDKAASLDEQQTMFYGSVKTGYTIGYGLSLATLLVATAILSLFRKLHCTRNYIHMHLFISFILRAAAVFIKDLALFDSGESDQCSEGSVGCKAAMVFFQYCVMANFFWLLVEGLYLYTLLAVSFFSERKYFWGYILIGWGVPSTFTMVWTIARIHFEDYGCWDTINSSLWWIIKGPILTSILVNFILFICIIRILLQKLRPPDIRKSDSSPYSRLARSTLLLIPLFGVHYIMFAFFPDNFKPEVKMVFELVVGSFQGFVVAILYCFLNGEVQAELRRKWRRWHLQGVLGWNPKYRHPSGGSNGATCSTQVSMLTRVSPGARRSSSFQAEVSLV

[3] = target: T3, Cysteinyl leukotriene receptor 1 (Homo sapiens, UniProt Q9Y271); type: cell membranes, CHO-K1, Membrane; settings: cho-k1; also: in other assays of this panel Not Active means under 50% inhibition at 10 µM
T3 sequence (Q9Y271 whole entry): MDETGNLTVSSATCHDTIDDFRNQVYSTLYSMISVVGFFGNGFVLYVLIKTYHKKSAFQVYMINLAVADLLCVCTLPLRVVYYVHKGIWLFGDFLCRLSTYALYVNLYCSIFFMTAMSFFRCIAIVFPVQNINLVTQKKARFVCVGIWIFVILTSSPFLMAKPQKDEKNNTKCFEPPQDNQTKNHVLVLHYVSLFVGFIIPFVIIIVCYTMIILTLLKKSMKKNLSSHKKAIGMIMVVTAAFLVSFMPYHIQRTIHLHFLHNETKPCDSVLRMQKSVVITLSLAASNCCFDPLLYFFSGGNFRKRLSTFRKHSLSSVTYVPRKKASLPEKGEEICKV

Adenosine receptor A2a = Adenosine receptor A2a (Homo sapiens, UniProt P29274); assay: DRUGMATRIX: Adenosine A2A radioligand binding (ligand: […]); type: cell membranes, Membrane; settings: hek293; Not Active = under 50% inhibition at 10 µM
Chain of Adenosine receptor A2a (P29274 whole entry): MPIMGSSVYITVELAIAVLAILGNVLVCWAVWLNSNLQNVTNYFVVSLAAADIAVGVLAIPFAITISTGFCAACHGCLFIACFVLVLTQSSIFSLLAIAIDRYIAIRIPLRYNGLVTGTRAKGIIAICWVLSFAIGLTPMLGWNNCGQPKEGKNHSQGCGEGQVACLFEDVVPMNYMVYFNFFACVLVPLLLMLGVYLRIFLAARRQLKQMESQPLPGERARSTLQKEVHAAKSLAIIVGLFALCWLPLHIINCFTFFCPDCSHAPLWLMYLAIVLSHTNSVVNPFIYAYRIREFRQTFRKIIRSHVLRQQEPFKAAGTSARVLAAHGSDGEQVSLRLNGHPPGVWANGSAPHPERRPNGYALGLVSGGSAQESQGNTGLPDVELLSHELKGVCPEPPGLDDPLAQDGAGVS

[4] = target: Sodium-dependent noradrenaline transporter (Homo sapiens, UniProt P23975); assay: DRUGMATRIX: Norepinephrine Transporter radioligand binding (ligand: [125I] RTI-55); type: cell membranes, MDCK, Membrane; settings: Not Active = under 50% inhibition at 10 µM; for Ki: read-out: Ki
Chain of Sodium-dependent noradrenaline transporter (P23975 whole entry): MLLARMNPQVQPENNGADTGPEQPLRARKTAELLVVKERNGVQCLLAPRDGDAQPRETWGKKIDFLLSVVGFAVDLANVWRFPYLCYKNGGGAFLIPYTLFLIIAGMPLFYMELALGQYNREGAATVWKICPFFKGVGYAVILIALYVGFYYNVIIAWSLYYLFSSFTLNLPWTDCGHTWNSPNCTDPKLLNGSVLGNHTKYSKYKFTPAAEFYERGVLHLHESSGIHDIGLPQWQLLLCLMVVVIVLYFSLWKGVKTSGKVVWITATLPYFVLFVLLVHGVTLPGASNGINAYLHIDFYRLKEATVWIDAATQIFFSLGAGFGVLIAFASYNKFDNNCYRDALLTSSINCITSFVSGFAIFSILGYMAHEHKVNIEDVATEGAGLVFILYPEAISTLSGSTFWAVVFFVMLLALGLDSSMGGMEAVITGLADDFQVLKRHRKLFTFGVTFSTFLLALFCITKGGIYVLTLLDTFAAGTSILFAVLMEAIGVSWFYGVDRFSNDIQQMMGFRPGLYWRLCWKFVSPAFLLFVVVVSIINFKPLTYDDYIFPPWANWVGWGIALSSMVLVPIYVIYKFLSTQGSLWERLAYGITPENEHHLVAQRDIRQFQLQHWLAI

Chain of Sigma non-opioid intracellular receptor 1 (Q99720 whole entry): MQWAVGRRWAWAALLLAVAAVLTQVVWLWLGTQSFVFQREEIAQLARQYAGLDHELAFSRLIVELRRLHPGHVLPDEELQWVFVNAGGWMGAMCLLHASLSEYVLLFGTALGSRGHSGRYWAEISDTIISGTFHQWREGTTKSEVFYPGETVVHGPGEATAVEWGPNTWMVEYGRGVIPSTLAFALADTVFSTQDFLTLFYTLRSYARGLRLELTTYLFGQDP

| Structure (SMILES) | IC50 ([1]; jurkat) | IC50 (Progesterone receptor) | IC50 [2] | IC50 [3] | IC50 (Adenosine receptor A2a) | IC50 ([4]; mdck) | IC50 ([1]; read-out: IC50) [µM] | Ki ([1]; read-out: Ki) [µM] | IC50 ([4]; read-out: IC50) [µM] | Ki [4] [µM] | IC50 (Progesterone receptor; read-out: IC50) [µM] | Ki (Progesterone receptor; read-out: Ki) [µM] |
| --- | --- | --- | --- | --- | --- | --- | --- | --- | --- | --- | --- | --- |
| N[C@@H](Cc1ccc(N(CCCl)CCCl)cc1)C(=O)O | Not Active | Not Active | Not Active | Not Active | Not Active | Not Active | – | – | – | – | – | – |
| CC(C)N1CCN(c2ccc(OCC3COC(Cn4cncn4)(c4ccc(Cl)cc4Cl)O3)cc2)CC1 (stereo not given) [TERCONAZOLE] | – | Not Active | Not Active | Not Active | Not Active | – | 0.508 | 0.214 | – | – | – | – |
| Cc1nc2n(c(=O)c1CCN1CCC(c3noc4cc(F)ccc34)CC1)CCCC2 [RISPERIDONE] | – | Not Active | Not Active | Not Active | Not Active | Not Active | – | – | – | – | – | – |
| N[C@@H]1[C@H]2CN(c3nc4c(cc3F)c(=O)c(C(=O)O)cn4-c3ccc(F)cc3F)C[C@@H]12 [TROVAFLOXACIN] | Not Active | Not Active | Not Active | Not Active | Not Active | Not Active | – | – | – | – | – | – |
| O=c1ncn2nc(Sc3ccc(F)cc3F)ccc2c1-c1c(Cl)cccc1Cl [NEFLAMAPIMOD] | Not Active | Not Active | Not Active | Not Active | Not Active | – | – | – | 20.4 | 20.2 | – | – |
| CCCCc1oc2ccccc2c1C(=O)c1cc(I)c(OCCN(CC)CC)c(I)c1 [AMIODARONE] | – | Not Active | Not Active | Not Active | Not Active | – | – | – | – | – | – | – |
| CC[C@]1(O)C[C@H]2CN(CCc3c([nH]c4ccccc34)[C@@](C(=O)OC)(c3cc4c(cc3OC)N(C=O)[C@H]3[C@@](O)(C(=O)OC)[C@H](OC(C)=O)[C@]5(CC)C=CCN6CC[C@]43[C@@H]65)C2)C1 [VINCRISTINE] | Not Active | Not Active | Not Active | Not Active | Not Active | Not Active | – | – | – | – | – | – |
| CO[C@H]1/C=C/O[C@@]2(C)Oc3c(C)c(O)c4c(O)c(c(/C=N/N5CCN(C)CC5)c(O)c4c3C2=O)NC(=O)/C(C)=C\C=C\[C@H](C)[C@H](O)[C@@H](C)[C@@H](O)[C@@H](C)[C@H](OC(C)=O)[C@@H]1C [RIFAMPIN] | Not Active | Not Active | Not Active | Not Active | Not Active | Not Active | – | – | – | – | – | – |
| Cc1noc(NS(=O)(=O)c2ccc(N)cc2)c1C [SULFISOXAZOLE] | Not Active | Not Active | Not Active | Not Active | Not Active | Not Active | – | – | – | – | – | – |
| NS(=O)(=O)c1cc2c(cc1Cl)NC(C(Cl)Cl)NS2(=O)=O (stereo not given) [TRICHLORMETHIAZIDE] | Not Active | Not Active | Not Active | Not Active | Not Active | Not Active | – | – | – | – | – | – |
| COc1nc(C)nc(Cl)c1NC1=NCCN1 [MOXONIDINE] | Not Active | Not Active | Not Active | Not Active | Not Active | Not Active | – | – | – | – | – | – |
| Nc1nc2ccc(OC(F)(F)F)cc2s1 [RILUZOLE] | Not Active | Not Active | Not Active | Not Active | Not Active | – | – | – | 1.73 | 1.72 | – | – |
| N[C@@H](Cc1cc(I)c(Oc2ccc(O)c(I)c2)c(I)c1)C(=O)O [LIOTHYRONINE] | Not Active | Not Active | Not Active | Not Active | Not Active | Not Active | – | – | – | – | – | – |
| C[C@@H]1CN(c2c(F)c(N)c3c(=O)c(C(=O)O)cn(C4CC4)c3c2F)C[C@H](C)N1 [SPARFLOXACIN] | Not Active | Not Active | Not Active | Not Active | Not Active | Not Active | – | – | – | – | – | – |
| CC1(C)O[C@@H]2C[C@H]3[C@@H]4CCC5=CC(=O)C=C[C@]5(C)[C@@]4(F)[C@@H](O)C[C@]3(C)[C@]2(C(=O)CO)O1 [TRIAMCINOLONE ACETONIDE] | Not Active | – | Not Active | Not Active | Not Active | Not Active | – | – | – | – | 0.179 | 0.023 |
